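96-well plates; 48 h exposure; 5 concentrations. Endpoints by linear interpolation between flanking doses. Not reached: highest tested concentration assigned. At the GI50, growth is halved.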 Calls of active or inactive are those of the source. Rule as the data show it: active = GI50 up to about 1.1 µM and inactive = higher.
Assays:
Test in all cases: DTP human tumour cell line panel, 48 h
MCF7 = tested on: MCF7
NCI-H522 = tested on: NCI-H522
HCT-15 = tested on: HCT-15
EKVX = tested on: EKVX
CCRF-CEM = tested on: CCRF-CEM
T47D = tested on: T47D
LOX IMVI = tested on: LOX IMVI
SF-295 = tested on: SF-295
HOP-62 = tested on: HOP-62
HOP-92 = tested on: HOP-92
SK-MEL-28 = tested on: SK-MEL-28
DU-145 = tested on: DU-145
UACC-62 = tested on: UACC-62
SW-620 = tested on: SW-620
SN12C = tested on: SN12C
CAKI-1 = tested on: CAKI-1
COLO 205 = tested on: COLO 205
TK-10 = tested on: TK-10
SR = tested on: SR
OVCAR-3 = tested on: OVCAR-3

| Compound | GI50 (MCF7) | GI50 (NCI-H522) | GI50 (HCT-15) | GI50 (EKVX) | GI50 (CCRF-CEM) | GI50 (T47D) | GI50 (LOX IMVI) | GI50 (SF-295) | GI50 (HOP-62) | GI50 (HOP-92) | GI50 (SK-MEL-28) | GI50 (DU-145) | GI50 (UACC-62) | GI50 (SW-620) | GI50 (SN12C) | GI50 (CAKI-1) | GI50 (COLO 205) | GI50 (TK-10) | GI50 (SR) | GI50 (OVCAR-3) |
| --- | --- | --- | --- | --- | --- | --- | --- | --- | --- | --- | --- | --- | --- | --- | --- | --- | --- | --- | --- | --- |
| O=C(SCc1cccc2ccccc12)c1ccc(Cl)cc1 | > 100 µM (inactive) | 45.8 µM (inactive) | 50.9 µM | 80 µM (inactive) | > 100 µM (inactive) | 81.7 µM (inactive) | > 100 µM (inactive) | > 100 µM (inactive) | > 100 µM (inactive) | 18.8 µM (inactive) | > 100 µM (inactive) | > 100 µM (inactive) | > 100 µM (inactive) | > 100 µM (inactive) | > 100 µM (inactive) | > 100 µM (inactive) | 82.2 µM (inactive) | > 100 µM (inactive) | 39.3 µM (inactive) | 44.4 µM (inactive) |
| O=C(N/N=C/c1ccccc1)c1cccc2nc3ccccc3nc12 | > 45 µM (inactive) | 44.8 µM (inactive) | 9.66 µM | > 39.3 µM (inactive) | > 74.8 µM (inactive) | > 100 µM (inactive) | 29.9 µM (inactive) | 17.1 µM (inactive) | 4.15 µM (inactive) | > 69.2 µM (inactive) | > 100 µM (inactive) | 17.9 µM (inactive) | > 100 µM (inactive) | > 100 µM (inactive) | > 87.9 µM (inactive) | > 100 µM (inactive) | 4.08 µM (inactive) | > 100 µM (inactive) | > 100 µM (inactive) | > 100 µM (inactive) |
| O=C1C(=Cc2ccccc2[N+](=O)[O-])N=C(c2ccccc2)N1n1c(-c2ccccc2)nc2ccccc2c1=O | 17.5 µM (inactive) | 17 µM (inactive) | 24.5 µM | 33.4 µM (inactive) | 31 µM (inactive) | 21 µM (inactive) | 29.4 µM (inactive) | 30.9 µM (inactive) | 28.6 µM (inactive) | 15.2 µM (inactive) | 30.9 µM (inactive) | 33.5 µM (inactive) | 19.1 µM (inactive) | 32.7 µM (inactive) | 23 µM (inactive) | 39.1 µM (inactive) | 31.3 µM (inactive) | > 100 µM (inactive) | 37.7 µM (inactive) | 29 µM (inactive) |
| C1CN(C23OC4(N5CCOCC5)C5C6CC(C7C6C4C72)C53)CCO1 (stereo not given) | > 100 µM (inactive) | > 83.4 µM (inactive) | > 100 µM | > 100 µM (inactive) | > 100 µM (inactive) | > 100 µM (inactive) | > 100 µM (inactive) | > 100 µM (inactive) | > 100 µM (inactive) | > 100 µM (inactive) | > 100 µM (inactive) | > 100 µM (inactive) | > 100 µM (inactive) | > 100 µM (inactive) | > 100 µM (inactive) | > 100 µM (inactive) | > 100 µM (inactive) | > 100 µM (inactive) | > 100 µM (inactive) | > 100 µM (inactive) |
| CCOC(=O)c1[nH]c(Br)c(-c2ccc(Br)cc2)c1Br | 1.87 µM (inactive) | 0.378 µM (active) | 0.516 µM | 7.18 µM (inactive) | 8.15 µM (inactive) | 2.39 µM (inactive) | 0.446 µM (active) | 0.263 µM (active) | 0.671 µM (active) | 1.14 µM (inactive) | 0.366 µM (active) | 1.66 µM (inactive) | 0.234 µM (active) | 0.555 µM (active) | 0.45 µM (active) | 0.8 µM (active) | 0.385 µM (active) | 3.23 µM (inactive) | 0.914 µM (active) | 0.237 µM (active) |
| C=C1CC/C=C(\C)C(=O)C[C@@H]2[C@@H]1CC2(C)C [BUDDLEDIN C] | 0.561 µM (active) | 0.439 µM (active) | 0.689 µM | 7.45 µM (inactive) | 0.0944 µM (active) | 2.31 µM (inactive) | 1.17 µM (inactive) | 15.5 µM (inactive) | 15.3 µM (inactive) | 1.97 µM (inactive) | 2.75 µM (inactive) | 3.16 µM (inactive) | 5.96 µM (inactive) | 1.1 µM (active) | 1.59 µM (inactive) | 1.38 µM (inactive) | 1.8 µM (inactive) | 3.13 µM (inactive) | 0.0578 µM (active) | 6.34 µM (inactive) |

From ChEMBL document CHEMBL1201862, “PubChem BioAssay data set” (2004)
